Data as given in article PMC5216903 (Febs Letters, 2016).

How the values were obtained:
Assay in all cases: two-electrode voltage clamp of Xenopus oocytes, steady-state current
Details in all cases: ND96 buffer pH 7.6, -60 mV; Fe(III) complex of DMA
Hv-Zm-Hv = type: cell-based, Hordeum vulgare; Zea mays
HvYS1 = HvYS1 (Hordeum vulgare, UniProt Q2PGC4); type: cell-based
Zm-Hv-Zm = type: cell-based, Zea mays; Hordeum vulgare
ZmYS1 = target: T1, ZmYS1 (Zea mays, UniProt Q9AY27); type: cell-based
T1 sequence (Q9AY27 1-682): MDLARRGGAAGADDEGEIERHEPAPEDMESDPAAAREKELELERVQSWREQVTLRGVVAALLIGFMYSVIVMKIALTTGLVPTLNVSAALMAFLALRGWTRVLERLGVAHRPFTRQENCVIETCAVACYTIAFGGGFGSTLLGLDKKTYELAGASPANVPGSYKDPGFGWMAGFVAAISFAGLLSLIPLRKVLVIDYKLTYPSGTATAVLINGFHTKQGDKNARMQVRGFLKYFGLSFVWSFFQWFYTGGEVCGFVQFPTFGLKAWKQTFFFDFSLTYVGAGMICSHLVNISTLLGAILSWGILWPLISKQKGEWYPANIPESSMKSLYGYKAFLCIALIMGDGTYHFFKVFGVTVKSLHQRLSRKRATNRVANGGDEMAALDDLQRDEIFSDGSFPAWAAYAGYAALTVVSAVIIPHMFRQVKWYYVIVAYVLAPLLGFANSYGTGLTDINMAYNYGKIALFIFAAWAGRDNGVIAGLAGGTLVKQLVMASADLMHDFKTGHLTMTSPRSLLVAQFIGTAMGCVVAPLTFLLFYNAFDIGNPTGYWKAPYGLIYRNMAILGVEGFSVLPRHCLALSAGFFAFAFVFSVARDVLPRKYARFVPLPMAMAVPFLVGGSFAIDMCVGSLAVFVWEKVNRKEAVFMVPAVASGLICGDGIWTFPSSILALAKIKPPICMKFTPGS

Chain of HvYS1 (Q2PGC4 1-678): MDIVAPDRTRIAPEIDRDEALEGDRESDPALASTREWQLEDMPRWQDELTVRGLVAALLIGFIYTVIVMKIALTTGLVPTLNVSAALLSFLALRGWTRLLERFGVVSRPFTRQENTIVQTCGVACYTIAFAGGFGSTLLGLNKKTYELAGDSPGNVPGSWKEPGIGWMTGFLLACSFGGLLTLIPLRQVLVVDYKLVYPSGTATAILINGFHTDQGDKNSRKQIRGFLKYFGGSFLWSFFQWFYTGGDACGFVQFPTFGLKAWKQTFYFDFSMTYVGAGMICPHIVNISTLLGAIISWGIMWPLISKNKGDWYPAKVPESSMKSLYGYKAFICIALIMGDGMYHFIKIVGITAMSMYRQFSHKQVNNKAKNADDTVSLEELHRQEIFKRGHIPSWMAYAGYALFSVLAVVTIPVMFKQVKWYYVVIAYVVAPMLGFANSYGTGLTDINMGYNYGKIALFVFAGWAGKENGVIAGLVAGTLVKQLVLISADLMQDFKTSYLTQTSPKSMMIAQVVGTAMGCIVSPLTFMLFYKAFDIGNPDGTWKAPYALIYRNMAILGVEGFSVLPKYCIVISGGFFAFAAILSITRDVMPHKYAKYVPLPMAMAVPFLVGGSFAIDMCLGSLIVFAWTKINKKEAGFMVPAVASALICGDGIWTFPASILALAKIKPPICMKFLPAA

O=C([O-])[C@H](CCN1CC[C@H]1C(=O)[O-])NCC[C@H](O)C(=O)[O-].[Fe+3] [Fe(III)-DMA]
Km (Hv-Zm-Hv): 60.8 µM | Km (HvYS1): 71.8 µM | Km (Zm-Hv-Zm): 44.2 µM | Km (ZmYS1): 65.3 µM
